According to DBAASP:
In brackets after ≈: the same amount, converted by molar mass.

Columns and labels:
Assay in all cases: ≥ marks a high value that may be exact or a test limit, other limits are often not marked, values filed in µg/mL are converted to µM
[1] = test system: Staphylococcus aureus ATCC 25923
[2] = test system: Escherichia coli ATCC 25922
[3] = test system: Pseudomonas aeruginosa ATCC 27853
Escherichia coli = test system: Escherichia coli
Pseudomonas aeruginosa = test system: Pseudomonas aeruginosa
Staphylococcus aureus = test system: Staphylococcus aureus

CC[C@H](C)[C@H](NC(=O)[C@H](CCCN=C(N)N)NC(=O)[C@H](CCCCN)NC(=O)[C@H](CC(C)C)NC(=O)[C@H](CC(C)C)NC(=O)CN)C(=O)N[C@@H](C)C(=O)N[C@H](C(=O)N[C@@H](CC(C)C)C(=O)N[C@@H](CC(C)C)C(N)=O)[C@@H](C)O [GLLKRIATLL]
MIC [1]: 10 µM (≈ 11 µg/mL)
MIC [2]: 10 µM (≈ 11 µg/mL)

CC(C)C[C@H](NC(=O)[C@H](CCCCN)NC(=O)[C@H](CCCCN)NC(=O)[C@H](C)NC(=O)[C@H](CC(C)C)NC(=O)[C@H](CCCCN)NC(=O)[C@H](C)NC(=O)[C@H](CC(C)C)NC(=O)[C@H](CCCCN)NC(=O)[C@H](CCCCN)NC(=O)[C@H](C)NC(=O)[C@H](CC(C)C)NC(=O)[C@@H](N)CCCCN)C(=O)N[C@@H](C)C(N)=O [KLAKKLAKLAKKLA]
MIC [3]: 3 µM (≈ 4.57 µg/mL)
MIC [1]: 6 µM (≈ 9.14 µg/mL)
MIC [2]: 6 µM (≈ 9.14 µg/mL)

CC[C@H](C)[C@H](NC(=O)CN)C(=O)N[C@@H](CC(C)C)C(=O)N[C@@H](CO)C(=O)N[C@H](C(=O)N[C@H](C(=O)N[C@@H](CCCCN)C(=O)N[C@@H](CC(=O)O)C(=O)N[C@@H](Cc1ccccc1)C(=O)N[C@@H](C)C(=O)N[C@H](C(=O)N[C@@H](CCCCN)C(=O)N[C@@H](C)C(=O)NCC(=O)N[C@@H](CCCCN)C(=O)NCC(=O)N[C@@H](C)C(=O)N[C@@H](C)C(=O)N[C@@H](CCCCN)C(=O)NCC(=O)N[C@@H](CC(C)C)C(=O)N[C@@H](CC(C)C)C(=O)N[C@@H](CCC(=O)O)C(=O)N[C@@H](CCSC)C(=O)N[C@@H](C)C(=O)N[C@@H](CO)C(=O)N[C@H]1CSSC[C@@H](C(=O)O)NC(=O)[C@H](CCC(N)=O)NC(=O)CNC(=O)[C@H](CO)NC(=O)[C@H](CC(C)C)NC(=O)[C@H](CCCCN)NC1=O)[C@@H](C)CC)[C@@H](C)CC)[C@@H](C)O [GILSTIKDFAIKAGKGAAKGLLEMASCKLSGQC]
MIC [2]: 3 µM (≈ 9.93 µg/mL)

CC(C)C[C@H](NC(=O)[C@H](CC(C)C)NC(=O)[C@@H](N)CCCCN)C(=O)N[C@@H](CCCN=C(N)N)C(=O)N[C@@H](CCCCN)C(=O)N[C@@H](CCCCN)C(=O)N[C@@H](Cc1ccccc1)C(=O)N[C@@H](Cc1c[nH]c2ccccc12)C(=O)N[C@@H](Cc1c[nH]c2ccccc12)C(=O)NCC(N)=O [KLLRKKFWWG]
MIC [1]: 184 µM (≈ 250 µg/mL)
MIC (Escherichia coli): 91.8 µM (≈ 125 µg/mL)

CC[C@H](C)[C@H](N)C(=O)N[C@@H](CC(C)C)C(=O)NCC(=O)N[C@@H](CCCCN)C(=O)N[C@@H](CC(C)C)C(=O)N[C@@H](Cc1c[nH]c2ccccc12)C(=O)N[C@@H](CCC(=O)O)C(=O)NCC(=O)N[C@H](C(=O)N[C@@H](CCCCN)C(=O)N[C@@H](CO)C(=O)N[C@H](C(N)=O)[C@@H](C)CC)C(C)C [ILGKLWEGVKSI]
MIC [3]: > 25 µM
MIC (Pseudomonas aeruginosa): > 25 µM

CC[C@H](C)[C@H](NC(=O)[C@H](CCCN=C(N)N)NC(=O)[C@H](Cc1c[nH]c2ccccc12)NC(=O)[C@@H](N)Cc1ccccc1)C(=O)N[C@@H](CCCN=C(N)N)C(=O)N[C@@H](CCCCN)C(=O)N[C@@H](Cc1c[nH]c2ccccc12)C(=O)N[C@@H](CCCN=C(N)N)C(N)=O [FWRIRKWR]
MIC [2]: 25.7 µM (≈ 32 µg/mL)

CC[C@H](C)[C@H](NC(=O)[C@H](Cc1c[nH]c2ccccc12)NC(=O)[C@H](CCCCN)NC(=O)[C@@H]1CCCN1C(=O)[C@H](CC(C)C)NC(=O)[C@H](CCCCN)NC(=O)CNC(=O)[C@@H](NC(=O)[C@@H](NC(=O)[C@@H](N)CO)[C@@H](C)O)[C@@H](C)CC)C(=O)N[C@H](C(=O)N[C@@H](CCCCN)C(=O)N[C@H](C(=O)N[C@H](C(=O)N[C@@H](CC(N)=O)C(=O)N[C@@H](CCCCN)C(=O)N[C@@H](Cc1ccccc1)C(=O)N[C@H](C(=O)N[C@@H](CCCCN)C(=O)N[C@@H](CCCCN)C(=O)O)[C@@H](C)O)C(C)C)[C@@H](C)O)[C@@H](C)CC [STIGKLPKWIIKTVNKFTKK]
MIC (Escherichia coli): 2.8 µM (≈ 6.53 µg/mL)

CC[C@H](C)[C@H](NC(=O)[C@H](C)NC(=O)[C@H](CCCCN)NC(=O)CNC(=O)[C@@H](NC(=O)[C@H](CCCCN)NC(=O)[C@@H](NC(=O)[C@H](C)NC(=O)[C@H](CCCCN)NC(=O)CNC(=O)[C@H](Cc1c[nH]c2ccccc12)NC(=O)[C@H](CCCCN)NC(=O)[C@@H](NC(=O)[C@H](C)NC(=O)[C@H](CCCCN)NC(=O)CNC(=O)[C@@H](NC(=O)[C@@H](N)CCCCN)[C@@H](C)CC)[C@@H](C)CC)[C@@H](C)CC)[C@@H](C)CC)C(N)=O [KIGKAIKWGKAIKIGKAI]
MIC (Staphylococcus aureus): > 133 µM
MIC (Escherichia coli): 16.6 µM (≈ 32 µg/mL)
MIC (Pseudomonas aeruginosa): 33.3 µM (≈ 64 µg/mL)

CC[C@H](C)[C@H](NC(=O)[C@H](Cc1ccccc1)NC(=O)[C@H](CO)NC(=O)[C@H](CCCCN)NC(=O)[C@H](Cc1c[nH]c2ccccc12)NC(=O)[C@@H](N)CCCCN)C(=O)N[C@@H](CCCCN)C(=O)N[C@@H](CCCCN)C(=O)N[C@@H](CCCCN)C(=O)N[C@H](C(=O)N[C@@H](CO)C(=O)N[C@@H](CCCCN)C(=O)N[C@@H](Cc1ccccc1)C(=O)N[C@@H](CC(C)C)C(=O)N[C@@H](Cc1cnc[nH]1)C(=O)N[C@@H](CO)C(=O)N[C@@H](C)C(=O)N[C@@H](CCCCN)C(=O)N[C@@H](CCCCN)C(=O)N[C@@H](Cc1ccccc1)C(N)=O)[C@@H](C)O [KWKSFIKKKTSKFLHSAKKF]
MIC (Pseudomonas aeruginosa): > 20.3 µM

CSCC[C@H](NC(=O)[C@H](CCCCN)NC(=O)[C@H](CCCCN)NC(=O)[C@H](CCCCN)NC(=O)[C@H](CCCN=C(N)N)NC(=O)[C@H](CCCN=C(N)N)NC(=O)[C@H](Cc1ccc(O)cc1)NC(=O)[C@@H](N)CCCN=C(N)N)C(=O)N[C@@H](CCCCN)C(=O)N[C@@H](CCCCN)C(N)=O [RYRRKKKMKK]
MIC [3]: > 100 µM
MIC [2]: > 100 µM

CC[C@H](C)[C@H](NC(=O)[C@H](C)NC(=O)CNC(=O)[C@@H](NC(=O)[C@H](CCCCN)NC(=O)[C@H](CCCCN)NC(=O)[C@@H](NC(=O)[C@H](C)NC(=O)CNC(=O)[C@H](Cc1c[nH]c2ccccc12)NC(=O)[C@H](CCCCN)NC(=O)[C@H](CCCCN)NC(=O)[C@@H](NC(=O)[C@H](C)NC(=O)CNC(=O)[C@@H](NC(=O)[C@@H](N)CCCCN)[C@@H](C)CC)[C@@H](C)CC)[C@@H](C)CC)[C@@H](C)CC)C(=O)N[C@@H](CCCCN)C(N)=O [KIGAIKKWGAIKKIGAIK]
MIC (Staphylococcus aureus): > 133 µM
MIC (Escherichia coli): > 133 µM
MIC (Pseudomonas aeruginosa): > 133 µM

CC(C)C[C@H](NC(=O)[C@H](Cc1ccccc1)NC(=O)[C@@H]1CCCN1C(=O)[C@H](Cc1c[nH]c2ccccc12)NC(=O)[C@H](Cc1c[nH]c2ccccc12)NC(=O)[C@H](C)NC(=O)[C@@H]1CCCN1C(=O)[C@H](Cc1ccccc1)NC(=O)[C@H](CCCN=C(N)N)NC(=O)[C@H](CCCN=C(N)N)NC(=O)[C@@H](N)C(C)C)C(=O)N[C@@H](CCCN=C(N)N)C(=O)N[C@@H](CCCN=C(N)N)C(N)=O [VRRFPAWWPFLRR]
MIC [2]: 45.3 µM (≈ 80.8 µg/mL)

CC[C@H](C)[C@H](NC(=O)CN)C(=O)N[C@@H](CCSC)C(=O)N[C@@H](CC(=O)O)C(=O)N[C@H](C(=O)N[C@H](C(=O)N[C@@H](CCCCN)C(=O)N[C@@H](CC(N)=O)C(=O)N[C@H](C(=O)N[C@@H](C)C(=O)N[C@@H](CCCCN)C(=O)N[C@@H](CC(N)=O)C(=O)N[C@@H](CC(C)C)C(=O)N[C@@H](C)C(=O)NCC(=O)N[C@@H](CCC(N)=O)C(=O)N[C@@H](CC(C)C)C(=O)N[C@@H](CC(C)C)C(=O)N[C@@H](CC(=O)O)C(=O)N[C@@H](CCCCN)C(=O)N[C@@H](CC(C)C)C(=O)N[C@@H](CCCCN)C(=O)N[C@H]1CSSC[C@@H](C(=O)O)NC(=O)[C@H](C)NC(=O)[C@H]([C@@H](C)O)NC(=O)[C@H]([C@@H](C)CC)NC(=O)[C@H](CCCCN)NC1=O)C(C)C)C(C)C)[C@@H](C)O [GIMDTVKNVAKNLAGQLLDKLKCKITAC]
MIC [2]: 25 µM (≈ 74.7 µg/mL)

CC[C@H](C)[C@H](NC(=O)CN)C(=O)NCC(=O)N[C@@H](CCCCN)C(=O)N[C@@H](Cc1ccccc1)C(=O)N[C@H](C(=O)N[C@@H](Cc1cnc[nH]1)C(=O)N[C@@H](CO)C(=O)N[C@@H](C)C(=O)N[C@@H](CCCCN)C(=O)N[C@@H](CCCN=C(N)N)C(=O)N[C@@H](Cc1ccccc1)C(=O)NCC(=O)N[C@@H](CCCN=C(N)N)C(=O)N[C@@H](C)C(=O)N[C@@H](Cc1c[nH]c2ccccc12)C(=O)N[C@H](C(=O)NCC(=O)N[C@@H](CCC(=O)O)C(=O)N[C@H](C(=O)N[C@@H](CCSC)C(=O)N[C@@H](CC(N)=O)C(=O)N[C@@H](CO)C(N)=O)[C@@H](C)CC)C(C)C)[C@@H](C)CC [GIGKFIHSAKRFGRAWVGEIMNS]
MIC (Staphylococcus aureus): > 75 µM
MIC (Escherichia coli): 37.5 µM (≈ 96 µg/mL)
MIC (Pseudomonas aeruginosa): 75 µM (≈ 192 µg/mL)

CC[C@H](C)[C@H](NC(=O)[C@H](CCSC)NC(=O)[C@@H](NC(=O)[C@H](CCC(=O)O)NC(=O)CNC(=O)[C@H](CC(C)C)NC(=O)[C@H](Cc1ccccc1)NC(=O)[C@H](C)NC(=O)[C@H](CCCCN)NC(=O)CNC(=O)[C@H](Cc1ccccc1)NC(=O)[C@H](CCCCN)NC(=O)CNC(=O)[C@H](C)NC(=O)[C@H](CO)NC(=O)[C@H](Cc1cnc[nH]1)NC(=O)[C@H](CC(C)C)NC(=O)[C@H](Cc1ccccc1)NC(=O)[C@H](CCCCN)NC(=O)CN)C(C)C)C(=O)NCC(=O)O [GKFLHSAGKFGKAFLGEVMIG]
MIC [1]: > 100 µM
MIC [2]: > 100 µM

CC[C@H](C)[C@H](NC(=O)CN)C(=O)NCC(=O)N[C@@H](CCCCN)C(=O)N[C@@H](Cc1ccccc1)C(=O)N[C@@H](CC(C)C)C(=O)N[C@@H](Cc1cnc[nH]1)C(=O)N[C@@H](CO)C(=O)N[C@@H](C)C(=O)N[C@@H](CCCCN)C(=O)N[C@@H](CCCCN)C(=O)N[C@@H](Cc1ccccc1)C(=O)NCC(=O)N[C@@H](CCCCN)C(=O)N[C@@H](C)C(=O)N[C@@H](Cc1ccccc1)C(=O)N[C@H](C(=O)NCC(=O)N[C@@H](CCC(=O)O)C(=O)N[C@H](C(=O)N[C@@H](CCSC)C(=O)N[C@@H](CC(N)=O)C(=O)N[C@@H](CO)C(=O)NCC(=O)NCC(=O)N[C@@H](CO)C(N)=O)[C@@H](C)CC)C(C)C [GIGKFLHSAKKFGKAFVGEIMNSGGS]
MIC [2]: 2.23 µM (≈ 5.94 µg/mL)
